The values that follow come from PMC5218480 (PLoS ONE, 2017).

Each structure is given as a SMILES string.

The assay relates to MV-4-11 cells. The experiment in a line: Gene expression microarray analysis (Affymetrix PrimeView) and GSEA. The class given is cell-based, human. On the set-up: RFU PODN (11730768_x_at) / Fold change /veh PODN (11730768_x_at) / RFU LINC00158 (11744669_a_at) / Fold change /veh LINC00158 (11744669_a_at) / RFU DUSP10 (11751237_a_at) / Fold change /veh DUSP10 (11751237_a_at) / RFU ID3 (11757404_x_at) / Fold change /veh ID3 (11757404_x_at) / RFU PLEKHG5 (11737974_s_at) / Fold change /veh PLEKHG5 (11737974_s_at) / RFU LRRC4B (11730491_at) / Fold change /veh LRRC4B (11730491_at) / RFU GIMAP4 (11747438_a_at) / Fold change /veh GIMAP4 (11747438_a_at) / RFU KRT8 (11758183_x_at) / Fold change /veh KRT8 (11758183_x_at) / RFU CNN1 (11734310_a_at) / Fold change /veh CNN1 (11734310_a_at) / RFU VPS37D (11726825_at) / Fold change /veh VPS37D (11726825_at) / RFU C10orf10 (11716522_x_at) / Fold change /veh C10orf10 (11716522_x_at) / RFU KIR2DL2 /// KIR2DL4 /// KIR2DL5A /// KIR2DL5B /// KIR2DS1 /// KIR2DS2 /// KIR2DS3 /// KIR2DS4 /// KIR3DL3 /// KIR3DL3 /// KIR3DS1 (11738374_at) / Fold change /veh KIR2DL2 /// KIR2DL4 /// KIR2DL5A /// KIR2DL5B /// KIR2DS1 /// KIR2DS2 /// KIR2DS3 /// KIR2DS4 /// KIR3DL3 /// KIR3DL3 /// KIR3DS1 (11738374_at) / RFU C1QL1 (11718748_at) / Fold change /veh C1QL1 (11718748_at) / RFU TMPRSS4 (11747572_a_at) / Fold change /veh TMPRSS4 (11747572_a_at) / RFU HAMP (11756126_x_at) / Fold change /veh HAMP (11756126_x_at) / RFU RNFT2 (11725882_a_at) / Fold change /veh RNFT2 (11725882_a_at) / RFU NR4A2 (11747474_a_at) / Fold change /veh NR4A2 (11747474_a_at) / RFU ABCC12 (11746883_a_at) / Fold change /veh ABCC12 (11746883_a_at) / RFU TMEM136 (11760407_x_at) / Fold change /veh TMEM136 (11760407_x_at) / RFU CLDN22 /// WWC2 (11732394_at) / Fold change /veh CLDN22 /// WWC2 (11732394_at) / RFU HLA-DPB1 (11760878_x_at) / Fold change /veh HLA-DPB1 (11760878_x_at) / RFU SPINT1 (11716480_a_at) / Fold change /veh SPINT1 (11716480_a_at) / RFU GAP43 (11754022_s_at) / Fold change /veh GAP43 (11754022_s_at) / RFU A4GNT (11735810_at) / Fold change /veh A4GNT (11735810_at) / RFU PRB3 (11715151_x_at) / Fold change /veh PRB3 (11715151_x_at) / RFU TUBB4B (11761932_at) / Fold change /veh TUBB4B (11761932_at) / RFU CAPN14 (11732068_a_at) / Fold change /veh CAPN14 (11732068_a_at) / RFU TMCC2 (11721928_a_at) / Fold change /veh TMCC2 (11721928_a_at) / RFU IRGQ (11745062_a_at) / Fold change /veh IRGQ (11745062_a_at) / RFU FAM174B (11720279_a_at) / Fold change /veh FAM174B (11720279_a_at) / RFU TMPRSS4 (11748680_a_at) / Fold change /veh TMPRSS4 (11748680_a_at) / RFU FAM212B (11763350_a_at) / Fold change /veh FAM212B (11763350_a_at) / RFU PLEKHG5 (11743358_a_at) / Fold change /veh PLEKHG5 (11743358_a_at) / RFU ZSCAN30 (11745921_a_at) / Fold change /veh ZSCAN30 (11745921_a_at) / RFU CMKLR1 (11741424_a_at) / Fold change /veh CMKLR1 (11741424_a_at) / RFU LOC101060620 /// MAPK8IP1 (11723275_at) / Fold change /veh LOC101060620 /// MAPK8IP1 (11723275_at) / RFU SPTSSB (11747773_x_at) / Fold change /veh SPTSSB (11747773_x_at) / RFU PRSS12 (11739890_at) / Fold change /veh PRSS12 (11739890_at) / RFU BIN1 (11741810_x_at) / Fold change /veh BIN1 (11741810_x_at) / RFU WNT11 (11732464_a_at) / Fold change /veh WNT11 (11732464_a_at) / RFU C10orf10 (11716521_a_at) / Fold change /veh C10orf10 (11716521_a_at) / RFU C5orf56 (11738089_at) / Fold change /veh C5orf56 (11738089_at) / RFU CYB561 (11721691_x_at) / Fold change /veh CYB561 (11721691_x_at) / RFU ANKRD19P (11752326_a_at) / Fold change /veh ANKRD19P (11752326_a_at) / RFU OR2T12 /// OR2T33 /// OR2T8 (11738714_s_at) / Fold change /veh OR2T12 /// OR2T33 /// OR2T8 (11738714_s_at) / RFU VCAN (11748164_a_at) / Fold change /veh VCAN (11748164_a_at) / RFU JSRP1 (11732532_at) / Fold change /veh JSRP1 (11732532_at) / RFU KRTAP10-11 (11738290_x_at) / Fold change /veh KRTAP10-11 (11738290_x_at) / RFU MYO3A (11730013_a_at) / Fold change /veh MYO3A (11730013_a_at) / RFU EBF3 (11725865_a_at) / Fold change /veh EBF3 (11725865_a_at) / RFU CAMK2N1 (11719241_x_at) / Fold change /veh CAMK2N1 (11719241_x_at) / RFU C5orf56 (11738088_a_at) / Fold change /veh C5orf56 (11738088_a_at) / RFU OLFML3 (11715873_a_at) / Fold change /veh OLFML3 (11715873_a_at) / RFU LOC100653217 /// NTM (11731650_a_at) / Fold change /veh LOC100653217 /// NTM (11731650_a_at) / RFU MAPK11 (11762145_a_at) / Fold change /veh MAPK11 (11762145_a_at) / RFU FIZ1 (11724087_x_at) / Fold change /veh FIZ1 (11724087_x_at) / RFU OASL (11726364_x_at) / Fold change /veh OASL (11726364_x_at) / RFU SOX15 (11748057_x_at) / Fold change /veh SOX15 (11748057_x_at) / RFU CD79A (11719716_a_at) / Fold change /veh CD79A (11719716_a_at) / RFU HIST1H1D (11736915_at) / Fold change /veh HIST1H1D (11736915_at) / RFU CASKIN2 (11723855_a_at) / Fold change /veh CASKIN2 (11723855_a_at) / RFU LOC730098 (11760151_x_at) / Fold change /veh LOC730098 (11760151_x_at) / RFU OR4N2 (11742367_at) / Fold change /veh OR4N2 (11742367_at) / RFU PRRT2 (11749266_a_at) / Fold change /veh PRRT2 (11749266_a_at) / RFU SNX32 (11753110_a_at) / Fold change /veh SNX32 (11753110_a_at) / RFU CDHR5 (11726645_a_at) / Fold change /veh CDHR5 (11726645_a_at) / RFU RCAN1 (11760418_a_at) / Fold change /veh RCAN1 (11760418_a_at) / RFU FAM167A (11723789_a_at) / Fold change /veh FAM167A (11723789_a_at) / RFU FAM26E (11764081_at) / Fold change /veh FAM26E (11764081_at) / RFU ISYNA1 (11749810_s_at) / Fold change /veh ISYNA1 (11749810_s_at) / RFU ACY1 (11761880_at) / Fold change /veh ACY1 (11761880_at) / RFU 11764098_at / Fold change /veh 11764098_at / RFU SAMD14 (11745864_x_at) / Fold change /veh SAMD14 (11745864_x_at) / RFU NPB (11741838_a_at) / Fold change /veh NPB (11741838_a_at) / RFU TMPRSS6 (11731388_a_at) / Fold change /veh TMPRSS6 (11731388_a_at) / RFU KRTAP10-2 (11738614_at) / Fold change /veh KRTAP10-2 (11738614_at) / RFU ARHGAP8 /// PRR5-ARHGAP8 (11727945_x_at) / Fold change /veh ARHGAP8 /// PRR5-ARHGAP8 (11727945_x_at) / RFU KRTAP5-7 /// NADSYN1 (11734609_at) / Fold change /veh KRTAP5-7 /// NADSYN1 (11734609_at) / RFU RASL12 (11751679_a_at) / Fold change /veh RASL12 (11751679_a_at) / RFU CDKN2B (11736163_a_at) / Fold change /veh CDKN2B (11736163_a_at) / RFU PRF1 (11729649_at) / Fold change /veh PRF1 (11729649_at) / RFU, ZNF638 /// ZNF638-IT1 / Fold change vs veh, ZNF638 /// ZNF638-IT1 / RFU, PANK3 / Fold change vs veh, PANK3 / RFU, SH3YL1 / Fold change vs veh, SH3YL1 / RFU, ZEB2 / Fold change vs veh, ZEB2 / RFU, NRIP1 / Fold change vs veh, NRIP1 / RFU, PTTG1IP / Fold change vs veh, PTTG1IP / RFU, CAPN2 / Fold change vs veh, CAPN2 / RFU, MED14 / Fold change vs veh, MED14 / RFU, SNORA58 / Fold change vs veh, SNORA58 / RFU, C1orf63 / Fold change vs veh, C1orf63 / RFU, LRRFIP1 / Fold change vs veh, LRRFIP1 / RFU, NDUFAF7 / Fold change vs veh, NDUFAF7 / RFU, SLC12A2 / Fold change vs veh, SLC12A2 / RFU, IBTK / Fold change vs veh, IBTK / RFU, ESF1 / Fold change vs veh, ESF1 / Fold change vs veh, TMEM50B / RFU, TAOK1 / Fold change vs veh, TAOK1 / RFU, ACBD3 / Fold change vs veh, ACBD3 / RFU, TMA16 / Fold change vs veh, TMA16 / RFU, RWDD3 / Fold change vs veh, RWDD3 / RFU, BCAT1 / Fold change vs veh, BCAT1 / RFU, EDEM3 / Fold change vs veh, EDEM3 / RFU, TMEM33 / Fold change vs veh, TMEM33 / RFU, WDR75 / Fold change vs veh, WDR75 / RFU, AHCTF1 / Fold change vs veh, AHCTF1 / RFU, TFRC / Fold change vs veh, TFRC / RFU, ZDHHC17 / Fold change vs veh, ZDHHC17 / RFU, NOM1 / Fold change vs veh, NOM1 / RFU, ARL8B / Fold change vs veh, ARL8B / RFU, ZBTB11 / Fold change vs veh, ZBTB11 / RFU, TAMM41 / Fold change vs veh, TAMM41 / RFU, KIAA1704 /// LOC100996395 / Fold change vs veh, KIAA1704 /// LOC100996395 / RFU, ING1 / Fold change vs veh, ING1 / RFU, TRMT61B / Fold change vs veh, TRMT61B / RFU, FUBP3 / Fold change vs veh, FUBP3 / RFU, TP53 / Fold change vs veh, TP53 / RFU, TNKS2 / Fold change vs veh, TNKS2 / RFU, ZFP14 / Fold change vs veh, ZFP14 / RFU, ACTR2 / Fold change vs veh, ACTR2 / RFU, PPP3R1 / Fold change vs veh, PPP3R1 / RFU, PIK3R1 / Fold change vs veh, PIK3R1 / RFU, HNRNPA1 / Fold change vs veh, HNRNPA1 / RFU, RNF170 / Fold change vs veh, RNF170 / RFU, ZNF28 / Fold change vs veh, ZNF28 / RFU, RNGTT / Fold change vs veh, RNGTT / RFU, OGT / Fold change vs veh, OGT / RFU, BRD1 / Fold change vs veh, BRD1 / RFU, MARS / Fold change vs veh, MARS / RFU, ZNF655 / Fold change vs veh, ZNF655 / RFU, FAHD1 / Fold change vs veh, FAHD1 / RFU, BDP1 / Fold change vs veh, BDP1 / RFU, LRRCC1 / Fold change vs veh, LRRCC1 / RFU, ARID1A / Fold change vs veh, ARID1A / RFU, ZNF146 / Fold change vs veh, ZNF146 / RFU, ZNF330 / Fold change vs veh, ZNF330 / RFU, GPN3 / Fold change vs veh, GPN3 / RFU, C9orf123 / Fold change vs veh, C9orf123 / RFU, N4BP2L2 / Fold change vs veh, N4BP2L2 / RFU, ARFIP1 / Fold change vs veh, ARFIP1 / RFU, FAM179B / Fold change vs veh, FAM179B / RFU, BCL10 / Fold change vs veh, BCL10 / RFU, UHRF1BP1L / Fold change vs veh, UHRF1BP1L / RFU, BET1 / Fold change vs veh, BET1 / RFU, CNOT2 / Fold change vs veh, CNOT2 / RFU, ZNF268 / Fold change vs veh, ZNF268 / Fold change vs veh, ZNF507 / RFU, DGCR2 / Fold change vs veh, DGCR2 / RFU, WDSUB1 / Fold change vs veh, WDSUB1 / Fold change vs veh, HSP90B1 /// MIR3652 / RFU, ADSS / Fold change vs veh, ADSS / RFU, GK / Fold change vs veh, GK / RFU, ZNF148 / Fold change vs veh, ZNF148 / RFU, TAF9 / Fold change vs veh, TAF9 / RFU, SLC1A5 / Fold change vs veh, SLC1A5 / RFU, SLMO2 / Fold change vs veh, SLMO2 / RFU, ABCC4 / Fold change vs veh, ABCC4 / RFU, LOC101060439 /// RAP1B / Fold change vs veh, LOC101060439 /// RAP1B / RFU, RFX7 / Fold change vs veh, RFX7 / RFU, GTPBP10 / Fold change vs veh, GTPBP10 / RFU, CNEP1R1 / Fold change vs veh, CNEP1R1 / RFU, BIVM-ERCC5 /// ERCC5 / Fold change vs veh, BIVM-ERCC5 /// ERCC5 / RFU, ILF3 / Fold change vs veh, ILF3 / RFU 11762660_at / Fold change /veh 11762660_at / RFU VCAN (11757783_s_at) / Fold change /veh VCAN (11757783_s_at) / RFU DDX43 (11728927_at) / Fold change /veh DDX43 (11728927_at) / RFU KRT8 (11758188_x_at) / Fold change /veh KRT8 (11758188_x_at) / RFU NKD1 (11759106_at) / Fold change /veh NKD1 (11759106_at) / RFU SRD5A1 (11742802_a_at) / Fold change /veh SRD5A1 (11742802_a_at) / RFU TPSAB1 /// TPSB2 (11721975_s_at) / Fold change /veh TPSAB1 /// TPSB2 (11721975_s_at) / RFU GSTM3 (11746129_a_at) / Fold change /veh GSTM3 (11746129_a_at) / RFU IL23R (11737362_x_at) / Fold change /veh IL23R (11737362_x_at) / RFU TMEM51 (11727254_a_at) / Fold change /veh TMEM51 (11727254_a_at) / RFU PIWIL2 (11732686_x_at) / Fold change /veh PIWIL2 (11732686_x_at) / RFU ORM1 (11744905_x_at) / Fold change /veh ORM1 (11744905_x_at) / RFU CCDC152 (11743942_at) / Fold change /veh CCDC152 (11743942_at) / RFU ECM1 (11717891_a_at) / Fold change /veh ECM1 (11717891_a_at) / RFU IL23R (11748794_a_at) / Fold change /veh IL23R (11748794_a_at) / RFU TNFAIP8L3 (11732012_x_at) / Fold change /veh TNFAIP8L3 (11732012_x_at) / RFU MBOAT4 (11741988_at) / Fold change /veh MBOAT4 (11741988_at) / RFU 11764193_at / Fold change /veh 11764193_at / RFU TMEM53 (11763286_at) / Fold change /veh TMEM53 (11763286_at) / RFU MAGEB2 (11727129_at) / Fold change /veh MAGEB2 (11727129_at) / RFU TMEM200A (11744735_a_at) / Fold change /veh TMEM200A (11744735_a_at) / RFU CCDC152 (11751479_a_at) / Fold change /veh CCDC152 (11751479_a_at) / RFU FAM211A (11726209_a_at) / Fold change /veh FAM211A (11726209_a_at) / RFU RGS16 (11746705_a_at) / Fold change /veh RGS16 (11746705_a_at) / RFU VCAN (11755009_s_at) / Fold change /veh VCAN (11755009_s_at) / RFU RHOB (11743442_s_at) / Fold change /veh RHOB (11743442_s_at) / RFU RGS16 (11720943_a_at) / Fold change /veh RGS16 (11720943_a_at) / RFU RGS16 (11720944_at) / Fold change /veh RGS16 (11720944_at) / RFU, VPS4B / Fold change vs veh, VPS4B / RFU, CREB1 / Fold change vs veh, CREB1 / RFU, DNAJC13 / Fold change vs veh, DNAJC13 / RFU, GNAQ / Fold change vs veh, GNAQ / RFU, CDK5R1 / Fold change vs veh, CDK5R1 / RFU, ZRANB3 / Fold change vs veh, ZRANB3 / RFU, CUL4A / Fold change vs veh, CUL4A / RFU, CCNY / Fold change vs veh, CCNY / RFU, UFL1 / Fold change vs veh, UFL1 / RFU, COG3 / Fold change vs veh, COG3 / RFU, DIAPH2 / Fold change vs veh, DIAPH2 / RFU, SKA2 / Fold change vs veh, SKA2 / RFU, AFF3 / Fold change vs veh, AFF3 / RFU, LMF1 / Fold change vs veh, LMF1 / RFU, IPO11 / Fold change vs veh, IPO11 / RFU, DFFB / Fold change vs veh, DFFB / RFU, FOXP1 / Fold change vs veh, FOXP1 / RFU, CARD8 / Fold change vs veh, CARD8 / RFU, STRN3 / Fold change vs veh, STRN3 / RFU, ADK / Fold change vs veh, ADK / RFU, RASSF2 / Fold change vs veh, RASSF2 / RFU, WIPF1 / Fold change vs veh, WIPF1 / RFU, LARP1B / Fold change vs veh, LARP1B / RFU, RASA1 / Fold change vs veh, RASA1 / RFU, RB1 / Fold change vs veh, RB1 / RFU, PPFIA1 / Fold change vs veh, PPFIA1 / RFU, MAT2A / Fold change vs veh, MAT2A / RFU, CCT5 / Fold change vs veh, CCT5 / RFU, WDR92 / Fold change vs veh, WDR92 / RFU, CUX1 / Fold change vs veh, CUX1 / RFU, TTC7A / Fold change vs veh, TTC7A / RFU, TMEM135 / Fold change vs veh, TMEM135 / RFU, DEPTOR / Fold change vs veh, DEPTOR / RFU, CPM / Fold change vs veh, CPM / RFU, DNAJB6 / Fold change vs veh, DNAJB6 / RFU, CACNA2D3 / Fold change vs veh, CACNA2D3 / RFU, DTX4 / Fold change vs veh, DTX4 / RFU, TFCP2 / Fold change vs veh, TFCP2 / RFU, GMCL1 /// GMCL1P1 / Fold change vs veh, GMCL1 /// GMCL1P1 / RFU, AEBP2 / Fold change vs veh, AEBP2 / RFU, SNHG1 /// SNORD22 /// SNORD25 /// SNORD26 /// SNORD27 /// SNORD28 /// SNORD29 /// SNORD31 / Fold change vs veh, SNHG1 /// SNORD22 /// SNORD25 /// SNORD26 /// SNORD27 /// SNORD28 /// SNORD29 /// SNORD31 / Fold change (Aza/veh), C12orf56 (ProbeSet 11735607_a_at) / Fold change (ACY-1035/veh), C12orf56 (ProbeSet 11735607_a_at) / Fold change (Aza/veh), FGFR1OP (ProbeSet 11751329_s_at) / Fold change (ACY-1035/veh), FGFR1OP (ProbeSet 11751329_s_at) / Fold change (Aza/veh), VPS36 (ProbeSet 11739960_a_at) / Fold change (ACY-1035/veh), VPS36 (ProbeSet 11739960_a_at) / RFU SYPL1 (11715823_x_at) / Fold change /veh SYPL1 (11715823_x_at) / RFU IGFBP7 (11715501_s_at) / Fold change /veh IGFBP7 (11715501_s_at) / RFU REEP3 (11722064_at) / Fold change /veh REEP3 (11722064_at) / RFU IGLL1 (11728026_x_at) / Fold change /veh IGLL1 (11728026_x_at): dose or concentration left out as unconfirmed. As to conditions: MV-4-11 cells, 48 hours.

With `Nc1ccc(-c2cccs2)cc1NC(=O)c1ccc2c(c1)cc(C1CC1)n2CCN1CCOCC1` [ACY-1035], the “RFU IGLL1 (11728026_x_at)” value was 5.54 RFU.
